Source: ChEMBL document CHEMBL1147867, “Identification of antitumour activity of novel derivatives of 8-aryl-2,6,7,8-tetrahydroimidazo[2,1-c][1,2,4]triazine-3,4-dione and 8-aryl-4-imino-2,3,7,8-tetrahydroimidazo[2,1-c][1,2,4]triazin-3(6H)-one” (Bioorg Med Chem, 2007)
Converted amounts (≈) assume the structure as drawn.

Legend:
[1] = Cytotoxicity against Vero cells at 10 ug/ml after 72 hrs; format: cell-based; settings: chlorocebus sabaeus, read-out: Inhibition
[2] = Cytotoxicity against Vero cells at 50 ug/ml after 72 hrs; format: cell-based; settings: chlorocebus sabaeus, read-out: Inhibition
[3] = Cytotoxicity against human LS180 cells at 10 ug/ml after 72 hrs; format: functional; settings: LS180, 72 h
[4] = Cytotoxicity against human LS180 cells at 50 ug/ml after 72 hrs; format: functional; settings: LS180, 72 h
[5] = test system: HeLa; test: Cytotoxicity against human HeLa cells at 10 ug/ml after 72 hrs; format: functional
[6] = test system: HeLa; test: Cytotoxicity against human HeLa cells at 50 ug/ml after 72 hrs; format: functional
[7] = test system: T47D; test: Cytotoxicity against human T47D cells at 10 ug/ml after 72 hrs; format: functional
[8] = test system: T47D; test: Cytotoxicity against human T47D cells at 50 ug/ml after 72 hrs; format: functional
[9] = Cell viability in HSF cells at 1 uM after 24 hrs by MTT assay; format: cell-based, Fibroblast; settings: human, read-out: Activity
[10] = Cell viability in HSF cells at 50 uM after 24 hrs by MTT assay; format: cell-based, Fibroblast; settings: human, read-out: Activity
[11] = Cell viability in HSF cells at 100 uM after 24 hrs by MTT assay; format: functional, Homo sapiens, Fibroblast
[12] = test system: RPMI-8226; test: Cell viability in human RPMI 8226 ECACC 87012702 cancer cells at 1 uM after 24 hrs by MTT assay; format: functional
[13] = test system: A549; test: Anticancer activity against human A549 cells at 10 ug/ml after 72 hrs; format: functional; settings: A549, 72 h
[14] = test system: A549; test: Anticancer activity against human A549 cells at 50 ug/ml after 72 hrs; format: functional; settings: A549, 72 h
[15] = Acute toxicity in mouse; format: organism-based; settings: in vivo
[16] = test system: RPMI-8226; test: Cell viability in human RPMI 8226 ECACC 87012702 cancer cells at 50 uM after 24 hrs by MTT assay; format: functional
[17] = test system: RPMI-8226; test: Cell viability in human RPMI 8226 ECACC 87012702 cancer cells at 100 uM after 24 hrs by MTT assay; format: functional
[18] = test system: Staphylococcus aureus; test: Antibacterial activity against Staphylococcus aureus after 24 hrs by microdilution broth method; format: functional
[19] = test system: Staphylococcus epidermidis; test: Antibacterial activity against Staphylococcus epidermidis after 24 hrs by microdilution broth method; format: functional
[20] = test system: Escherichia coli; test: Antibacterial activity against Escherichia coli after 24 hrs by microdilution broth method; format: functional

SMILES	cytotoxicity at 72 h, 10 ug/ml [1]	cytotoxicity at 72 h, 50 ug/ml [2]	inhibition at 10 µg/mL [3]	inhibition at 50 µg/mL [4]	inhibition at 10 µg/mL [5]	inhibition at 50 µg/mL [6]	inhibition at 10 µg/mL [7]	inhibition at 50 µg/mL [8]	viability at 24 h, 1 µM [9]	viability at 24 h, 50 µM [10]	Activity [11]	Activity [12]	inhibition at 10 µg/mL [13]	inhibition at 50 µg/mL [14]	LD50 [15]	Activity [16]	Activity [17]	MIC [18]	MIC [19]	MIC [20]
Cc1ccc(N2CCN/C2=N\N)cc1	0%	9%	11%	15%	3%	0%	12%	17%												
COc1ccc(N2CCn3c2n[nH]c(=O)c3=O)cc1	0%	10%	0%	46%	6%	0%	7%	21%	94%	92%	94%	98%	0%	0%	1500 mg/kg	99%	99%			
N=c1c(=O)[nH]nc2n1CCN2c1ccccc1	26%	30%	0%	1%	30%	34%	0%	3%	101%	103%	106%	95%	7%	38%		103%	106%			
N/N=C1\NCCN1c1ccccc1Cl	0%	0%	7%	0%	2%	0%	22%	27%												
COc1ccccc1N1CCn2c1n[nH]c(=O)c2=O	26%	17%	30%	29%	5%	8%	1%	9%	103%	101%	94%	90%	0%	39%	1100 mg/kg	90%	85%			
N/N=C1\NCCN1c1cccc(Cl)c1	0%	10%	8%	0%	0%	0%	5%	0%												
O=C(N[C@H](CO)[C@H](O)c1ccc([N+](=O)[O-])cc1)C(Cl)Cl [CHLORAMPHENICOL]																		12.1 µM (≈ 3.91 µg/mL)	6 µM (≈ 1.94 µg/mL)	12.1 µM (≈ 3.91 µg/mL)
O=c1[nH]nc2n(c1=O)CCN2c1ccc(Cl)c(Cl)c1									109%	90%	90%	98%				35%	25%			
Cc1cccc(N2CCn3c2n[nH]c(=O)c3=O)c1C	18%	18%	0%	0%	0%	0%	21%	22%					0%	0%						
O=c1[nH]nc2n(c1=O)CCN2c1cccc(Cl)c1	11%	24%	0%	0%	27%	38%	0%	0%	95%	91%	91%	89%	0%	0%	> 2000 mg/kg	68%	62%			
Cc1ccccc1N1CCn2c1n[nH]c(=O)c2=O	0%	0%	0%	0%	0%	0%	0%	0%	104%	110%	108%	101%	24%	29%		121%	133%			
CC1(C)S[C@@H]2[C@H](NC(=O)[C@H](N)c3ccccc3)C(=O)N2[C@H]1C(=O)O [AMPICILLIN]																		35.8 µM (≈ 12.5 µg/mL)	71.5 µM (≈ 25 µg/mL)	35.8 µM (≈ 12.5 µg/mL)
N=c1c(=O)[nH]nc2n1CCN2c1ccc(Cl)cc1	0%	0%	0%	5%	8%	0%	16%	27%	98%	84%	74%	94%	25%	27%		76%	64%			
N=c1c(=O)[nH]nc2n1CCN2c1cccc(Cl)c1	0%	0%	0%	1%	6%	2%	3%	31%					36%	50%						
N=c1c(=O)[nH]nc2n1CCN2c1ccccc1Cl	0%	2%	6%	2%	0%	0%	0%	0%	100%	104%	101%	93%	6%	16%		94%	93%			
